In ChEMBL document CHEMBL1201861, “Genomics of Drug Sensitity in Cancer screening data, Wellcome Trust Sanger Institute”:

Assays:
Experiment in all cases: cells
CW-2 = assay type: functional, cell-based, Homo sapiens; settings: Homo sapiens, CW-2;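 note: growth inhibition of CW-2 cells, read out by a cell viability assay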
Description: SANGER: Inhibition of human CW-2 cell growth in a cell viability assay.

D-502MG = assay type: functional, cell-based, Homo sapiens; settings: Homo sapiens, D-502MG
Description: SANGER: Inhibition of human D-502MG cell growth in a cell viability assay.

DMS-114 = assay type: functional, cell-based, Homo sapiens; settings: Homo sapiens, DMS-114
EM-2 = assay type: functional, cell-based; settings: Homo sapiens;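 note: growth inhibition of EM-2 cells, read out with a cell viability assay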
Description: SANGER: Inhibition of human EM-2 cell growth in a cell viability assay.

ES3 = assay type: functional, cell-based, Homo sapiens; settings: Homo sapiens, ES3;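 note: growth inhibition of ES3 cells, read out with a cell viability assay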
EW-3 = assay type: functional, cell-based; settings: Homo sapiens;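 note: cell viability assay read-out, IC50 reflects inhibition of growth of the EW-3 cells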
Description: SANGER: Inhibition of human EW-3 cell growth in a cell viability assay.

FaDu = assay type: functional, cell-based, Homo sapiens; settings: Homo sapiens, FaDu;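 note: cell viability readout of growth inhibition in FaDu cells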
Description: SANGER: Inhibition of human FADU cell growth in a cell viability assay.

G-402 = assay type: functional, cell-based, Homo sapiens; settings: Homo sapiens, G-402
Description: SANGER: Inhibition of human G-402 cell growth in a cell viability assay.

HCC1954 = assay type: functional, cell-based, Homo sapiens; settings: Homo sapiens, HCC1954;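 note: growth inhibition of human HCC1954 cells, read out with a cell viability assay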
Description: SANGER: Inhibition of human HCC1954 cell growth in a cell viability assay.

HH = assay type: functional, cell-based; settings: Homo sapiens
Description: SANGER: Inhibition of human HH cell growth in a cell viability assay.

JEG-3 = assay type: functional, cell-based, Homo sapiens; settings: Homo sapiens, JEG-3;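 note: growth inhibition of human JEG-3 cells, read out with a cell viability assay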
Description: SANGER: Inhibition of human JEG-3 cell growth in a cell viability assay.

KY821 = assay type: functional, cell-based; settings: Homo sapiens;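 note: growth inhibition of human KY821 cells, read out by a cell viability assay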
Description: SANGER: Inhibition of human KY821 cell growth in a cell viability assay.

LB831-BLC = assay type: functional, cell-based, Homo sapiens; settings: Homo sapiens, LB831-BLC;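 note: growth inhibition of LB831-BLC cells, read out with a cell viability assay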
Description: SANGER: Inhibition of human LB831-BLC cell growth in a cell viability assay.

LS-1034 = assay type: functional, cell-based, Homo sapiens; settings: Homo sapiens, LS-1034
Description: SANGER: Inhibition of human LS-1034 cell growth in a cell viability assay.

M14 = assay type: functional, cell-based, Homo sapiens; settings: Homo sapiens, M14;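 note: growth inhibition of M14 cells, read out with a cell viability assay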
Description: SANGER: Inhibition of human M14 cell growth in a cell viability assay.

MDA-MB-175-VII = assay type: functional, cell-based, Homo sapiens; settings: Homo sapiens, MDA-MB-175-VII
MLMA = assay type: functional, cell-based, Homo sapiens; settings: Homo sapiens, MLMA;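 note: growth inhibition of MLMA cells (human), determined through a cell viability readout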
Description: SANGER: Inhibition of human MLMA cell growth in a cell viability assay.

MV4-11 = assay type: functional, cell-based, MV-4-11; settings: Homo sapiens;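 note: cell viability readout measuring growth inhibition of human MV-4-11 cells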
Description: SANGER: Inhibition of human MV-4-11 cell growth in a cell viability assay.

Mo = assay type: functional, cell-based; settings: Homo sapiens
Description: SANGER: Inhibition of human Mo-T cell growth in a cell viability assay.

NB10 = assay type: functional, cell-based, Homo sapiens; settings: Homo sapiens, NB10;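 note: growth inhibition of NB10 cells, read out by a cell viability assay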
Description: SANGER: Inhibition of human NB10 cell growth in a cell viability assay.

NB13 = assay type: functional, cell-based, Homo sapiens; settings: Homo sapiens, NB13;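 note: cell viability readout measuring growth inhibition of human NB13 cells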
Description: SANGER: Inhibition of human NB13 cell growth in a cell viability assay.

NCI-H1092 = assay type: functional, cell-based; settings: Homo sapiens;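 note: cell growth inhibition measured with a cell viability assay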
Description: SANGER: Inhibition of human NCI-H1092 cell growth in a cell viability assay.

NCI-H1155 = assay type: functional, cell-based; settings: Homo sapiens;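 note: cell growth inhibition measured by a viability assay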
Description: SANGER: Inhibition of human NCI-H1155 cell growth in a cell viability assay.

NCI-H1437 = assay type: functional, cell-based, Homo sapiens; settings: Homo sapiens, NCI-H1437;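 note: growth inhibition of human NCI-H1437 cells, read out by a cell viability assay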
Description: SANGER: Inhibition of human NCI-H1437 cell growth in a cell viability assay.

NCI-H1581 = assay type: functional, cell-based, Homo sapiens; settings: Homo sapiens, NCI-H1581;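 note: cell growth inhibition read out by a viability assay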
Description: SANGER: Inhibition of human NCI-H1581 cell growth in a cell viability assay.

NCI-H209 = assay type: functional, cell-based; settings: Homo sapiens;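 note: growth inhibition of human NCI-H209 cells, measured by a cell viability assay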
Description: SANGER: Inhibition of human NCI-H209 cell growth in a cell viability assay.

NCI-H2170 = assay type: functional, cell-based, Homo sapiens; settings: Homo sapiens, NCI-H2170;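 note: cell viability assay measuring growth inhibition of human NCI-H2170 cancer cells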
Description: SANGER: Inhibition of human NCI-H2170 cell growth in a cell viability assay.

SNU1 = assay type: functional, cell-based; settings: Homo sapiens;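 note: growth inhibition of human NCI-SNU-1 cells, measured with a cell viability assay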
Description: SANGER: Inhibition of human NCI-SNU-1 cell growth in a cell viability assay.

NEC8 = assay type: functional, cell-based, Homo sapiens; settings: Homo sapiens, NEC8;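 note: growth inhibition of human NEC8 cells, read out by a cell viability assay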
Description: SANGER: Inhibition of human NEC8 cell growth in a cell viability assay.

OE19 = assay type: functional, cell-based, Homo sapiens; settings: Homo sapiens, OE19;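 note: growth inhibition of OE19 cells, measured through a cell viability read-out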
Description: SANGER: Inhibition of human OE19 cell growth in a cell viability assay.

P30-OHK = assay type: functional, cell-based; settings: Homo sapiens;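 note: growth inhibition of the P30-OHK cell line, read out with a cell viability assay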
Description: SANGER: Inhibition of human P30-OHK cell growth in a cell viability assay.

PANC-03-27 = assay type: functional, cell-based, Homo sapiens; settings: Homo sapiens, PANC-03-27
Description: SANGER: Inhibition of human PANC-03-27 cell growth in a cell viability assay.

RCM-1 = assay type: functional, cell-based, Homo sapiens; settings: Homo sapiens, RCM-1;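 note: growth inhibition of the RCM-1 line, determined with a cell viability readout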
Description: SANGER: Inhibition of human RCM-1 cell growth in a cell viability assay.

Ramos-2G6-4C10 = assay type: functional, cell-based; settings: Homo sapiens;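 note: growth inhibition of the cell line, measured by a cell viability read-out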
Description: SANGER: Inhibition of human Ramos-2G6-4C10 cell growth in a cell viability assay.

SCC-4 = assay type: functional, cell-based, Homo sapiens; settings: Homo sapiens, SCC-4;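 note: growth inhibition of human SCC-4 cells, read out as cell viability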
Description: SANGER: Inhibition of human SCC-4 cell growth in a cell viability assay.

SW1463 = assay type: functional, cell-based, Homo sapiens; settings: Homo sapiens, SW1463;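 note: growth inhibition of SW1463 cells, determined with a cell viability assay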
Description: SANGER: Inhibition of human SW1463 cell growth in a cell viability assay.

SW-620 = assay type: functional, cell-based, Homo sapiens; settings: Homo sapiens, SW-620;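 note: growth inhibition of human SW-620 cells, measured by a cell viability assay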
Description: SANGER: Inhibition of human SW620 cell growth in a cell viability assay.

CWR22R = assay type: functional, cell-based, Homo sapiens; settings: Homo sapiens, 22Rv1;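 note: growth inhibition of 22Rv1 cells, read out with a cell viability assay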
Description: SANGER: Inhibition of human 22RV1 cell growth in a cell viability assay.

697 = assay type: functional, cell-based; settings: Homo sapiens
Description: SANGER: Inhibition of human 697 cell growth in a cell viability assay.

8-MG-BA = assay type: functional, cell-based, Homo sapiens; settings: Homo sapiens, 8-MG-BA;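 note: growth inhibition of 8-MG-BA cells, read out with a cell viability assay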
Description: SANGER: Inhibition of human 8-MG-BA cell growth in a cell viability assay.

AM-38 = assay type: functional, cell-based, Homo sapiens; settings: Homo sapiens, AM-38;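 note: growth inhibition of AM-38 cells of human origin, read out by a cell viability assay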
BE-13 = assay type: functional, cell-based; settings: Homo sapiens;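 note: growth inhibition of human BE-13 cells, measured with a cell viability assay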
Description: SANGER: Inhibition of human BE-13 cell growth in a cell viability assay.

BHY = assay type: functional, cell-based, Homo sapiens; settings: Homo sapiens, BHY;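 note: cell growth inhibition read out by a viability assay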
Description: SANGER: Inhibition of human BHY cell growth in a cell viability assay.

BT-474 = assay type: functional, cell-based, Homo sapiens; settings: Homo sapiens, BT-474
Description: SANGER: Inhibition of human BT-474 cell growth in a cell viability assay.

BXPC-3 = assay type: functional, cell-based, Homo sapiens; settings: Homo sapiens, BXPC-3;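 note: growth inhibition of human BxPC-3 cells, read out by a cell viability assay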
Description: SANGER: Inhibition of human BxPC-3 cell growth in a cell viability assay.

C2BBe1 = assay type: functional, cell-based, Homo sapiens; settings: Homo sapiens, C2BBe1;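 note: growth inhibition of C2BBe1 cells, read out through a viability assay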
Description: SANGER: Inhibition of human C2BBe1 cell growth in a cell viability assay.

U-87 MG = assay type: functional, cell-based, U-87MG ATCC; settings: Homo sapiens;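 note: growth inhibition of the cells measured with a viability assay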
Description: SANGER: Inhibition of human U-87-MG cell growth in a cell viability assay.

U-251 = assay type: functional, cell-based, Homo sapiens; settings: Homo sapiens, U-251;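 note: growth inhibition of human U-251 cells, read out through a cell viability assay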
Description: SANGER: Inhibition of human U251 cell growth in a cell viability assay.

UMC-11 = assay type: functional, cell-based, Homo sapiens; settings: Homo sapiens, UMC-11;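 note: growth inhibition of UMC-11 cells, read out with a cell viability assay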
Description: SANGER: Inhibition of human UMC-11 cell growth in a cell viability assay.

COLO-684 = assay type: functional, cell-based; settings: Homo sapiens
Description: SANGER: Inhibition of human COLO-684 cell growth in a cell viability assay.

DMS-79 = assay type: functional, cell-based; settings: Homo sapiens;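 note: growth inhibition measured with a cell viability assay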
Description: SANGER: Inhibition of human DMS-79 cell growth in a cell viability assay.

HuTu80 = assay type: functional, cell-based, Homo sapiens, HUTU-80; settings: Homo sapiens, HuTu80;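 note: growth inhibition of HuTu80 human cells, determined with a cell viability readout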
Description: SANGER: Inhibition of human HUTU-80 cell growth in a cell viability assay.

MMAC-SF = assay type: functional, cell-based, Homo sapiens; settings: Homo sapiens, MMAC-SF;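 note: growth inhibition of human MMAC-SF cells, read out with a cell viability assay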
Description: SANGER: Inhibition of human MMAC-SF cell growth in a cell viability assay.

Structure (SMILES): COc1ccc(-c2ccc3c(N4CCOC[C@@H]4C)nc(N4CCOC[C@@H]4C)nc3n2)cc1CO [AZD-8055]
- IC50 (CW-2): > 2000 nM
- IC50 (D-502MG): > 2000 nM
- IC50 (DMS-114): 937 nM
- IC50 (EM-2): 342 nM
- IC50 (ES3): 1130 nM
- IC50 (EW-3): 40.6 nM
- IC50 (FaDu): > 2000 nM
- IC50 (G-402): 99.8 nM
- IC50 (HCC1954): > 2000 nM
- IC50 (HH): 80.1 nM
- IC50 (JEG-3): 1580 nM
- IC50 (KY821): 1570 nM
- IC50 (LB831-BLC): 1390 nM
- IC50 (LS-1034): > 2000 nM
- IC50 (M14): 472 nM
- IC50 (MDA-MB-175-VII): 577 nM
- IC50 (MLMA): > 2000 nM
- IC50 (MV4-11): 103 nM
- IC50 (Mo): > 2000 nM
- IC50 (NB10): > 2000 nM
- IC50 (NB13): 1140 nM
- IC50 (NCI-H1092): 1130 nM
- IC50 (NCI-H1155): > 2000 nM
- IC50 (NCI-H1437): 606 nM
- IC50 (NCI-H1581): 190 nM
- IC50 (NCI-H209): 54.5 nM
- IC50 (NCI-H2170): > 2000 nM
- IC50 (SNU1): 323 nM
- IC50 (NEC8): 417 nM
- IC50 (OE19): > 2000 nM
- IC50 (P30-OHK): 327 nM
- IC50 (PANC-03-27): 1030 nM
- IC50 (RCM-1): > 2000 nM
- IC50 (Ramos-2G6-4C10): 170 nM
- IC50 (SCC-4): 585 nM
- IC50 (SW1463): > 2000 nM
- IC50 (SW-620): > 2000 nM
- IC50 (CWR22R): 707 nM
- IC50 697: 274 nM
- IC50 (8-MG-BA): 1980 nM
- IC50 (AM-38): 1370 nM
- IC50 (BE-13): 1120 nM
- IC50 (BHY): 887 nM
- IC50 (BT-474): 1780 nM
- IC50 (BXPC-3): 888 nM
- IC50 (C2BBe1): 1170 nM
- IC50 (U-87 MG): > 2000 nM
- IC50 (U-251): > 2000 nM
- IC50 (UMC-11): > 2000 nM
- IC50 (COLO-684): 457 nM

Structure (SMILES): CCC(=O)N1CCN(c2ccc(-n3c(=O)ccc4cnc5ccc(-c6cnc7ccccc7c6)cc5c43)cc2C(F)(F)F)CC1 [TORIN1]
- IC50 (CW-2): > 1200 nM
- IC50 (D-502MG): > 1200 nM
- IC50 (DMS-114): 240 nM
- IC50 (DMS-79): > 1200 nM
- IC50 (EM-2): 115 nM
- IC50 (ES3): > 1200 nM
- IC50 (EW-3): 217 nM
- IC50 (HH): 135 nM
- IC50 (HuTu80): 9.29 nM
- IC50 (KY821): 220 nM
- IC50 (LB831-BLC): 161 nM
- IC50 (LS-1034): 364 nM
- IC50 (MLMA): 67.8 nM
- IC50 (MMAC-SF): 26.3 nM
- IC50 (MV4-11): 70 nM
- IC50 (Mo): > 1200 nM
- IC50 (NB10): > 1200 nM
- IC50 (NB13): 47.8 nM
- IC50 (NCI-H1092): > 1200 nM
- IC50 (NCI-H1155): 654 nM
- IC50 (NCI-H1581): 297 nM
- IC50 (NCI-H209): 230 nM
- IC50 (SNU1): > 1200 nM
- IC50 (NEC8): 562 nM
- IC50 (P30-OHK): > 1200 nM
- IC50 (Ramos-2G6-4C10): 27.5 nM
- IC50 697: 6.34 nM
- IC50 (8-MG-BA): 46.3 nM
- IC50 (AM-38): > 1200 nM
- IC50 (BE-13): 37.6 nM
- IC50 (BT-474): 293 nM
- IC50 (C2BBe1): 137 nM
- IC50 (U-87 MG): > 1200 nM
- IC50 (COLO-684): 45.6 nM

Structure (SMILES): Cc1cc(Nc2cc(N3CCN(C)CC3)nc(Sc3ccc(NC(=O)C4CC4)cc3)n2)n[nH]1 [TOZASERTIB]
- IC50 (CW-2): > 2000 nM
- IC50 (D-502MG): > 2000 nM
- IC50 (DMS-114): > 2000 nM
- IC50 (DMS-79): > 2000 nM
- IC50 (EM-2): 266 nM
- IC50 (ES3): > 2000 nM
- IC50 (EW-3): > 2000 nM
- IC50 (HH): > 2000 nM
- IC50 (HuTu80): 53 nM
- IC50 (KY821): > 2000 nM
- IC50 (LB831-BLC): > 2000 nM
- IC50 (LS-1034): > 2000 nM
- IC50 (MLMA): > 2000 nM
- IC50 (MMAC-SF): > 2000 nM
- IC50 (MV4-11): 77.8 nM
- IC50 (Mo): > 2000 nM
- IC50 (NB10): > 2000 nM
- IC50 (NB13): 280 nM
- IC50 (NCI-H1092): > 2000 nM
- IC50 (NCI-H1155): > 2000 nM
- IC50 (NCI-H1581): > 2000 nM
- IC50 (NCI-H209): > 2000 nM
- IC50 (SNU1): > 2000 nM
- IC50 (NEC8): > 2000 nM
- IC50 (P30-OHK): > 2000 nM
- IC50 (Ramos-2G6-4C10): > 2000 nM
- IC50 697: 24.7 nM
- IC50 (8-MG-BA): > 2000 nM
- IC50 (AM-38): > 2000 nM
- IC50 (BE-13): 3.38 nM
- IC50 (BT-474): > 2000 nM
- IC50 (C2BBe1): > 2000 nM
- IC50 (U-87 MG): > 2000 nM
- IC50 (COLO-684): > 2000 nM
